Experiments:
rape = assay: Test B pre/postemergence rape; assay type: in vivo, Brassica napus
In short: (§1)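 Test chemicals in a non-phytotoxic solvent mixture with surfactant were sprayed preemergence onto planted seeds and postemergence onto plants 2 to 18 cm tall (1- to 4-leaf stage). After twelve to sixteen days in a greenhouse, injury was visually rated against untreated controls from 0 (no effect) to 10 (complete control).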

soybean = assay: Test B pre/postemergence soybean; assay type: in vivo, Glycine max
In short: as §1

velvetleaf = assay: Test B pre/postemergence velvetleaf; assay type: in vivo, Abutilon theophrasti
In short: as §1

pigweed = assay: Test B pre/postemergence pigweed; assay type: in vivo, Amaranthus retroflexus
In short: as §1

morningglory = assay: Test B pre/postemergence morningglory; assay type: in vivo, Ipomoea hederacea
In short: as §1

bedstraw = assay: Test B pre/postemergence bedstraw; assay type: in vivo, Galium aparine; conditions: Preemergence
In short: as §1

sugar beet = assay: Test B pre/postemergence sugar beet; assay type: in vivo, Beta vulgaris
In short: as §1

corn = assay: Test B pre/postemergence corn; assay type: in vivo, Zea mays
In short: as §1

crabgrass = assay: Test B pre/postemergence crabgrass; assay type: in vivo, Digitaria sanguinalis
In short: as §1

purple nutsedge = assay: Test B pre/postemergence purple nutsedge; assay type: in vivo, Cyperus rotundus
In short: as §1

wheat = assay: Test B pre/postemergence wheat; assay type: in vivo, Triticum aestivum
In short: as §1

giant foxtail = assay: Test B pre/postemergence giant foxtail; assay type: in vivo, Setaria faberii
In short: as §1

wild oat = assay: Test B pre/postemergence wild oat; assay type: in vivo, Avena fatua
In short: as §1

surinam grass = assay: Test B pre/postemergence surinam grass; assay type: in vivo, Brachiaria decumbens
In short: as §1

cocklebur = assay: Test B pre/postemergence cocklebur; assay type: in vivo, Xanthium strumarium
In short: as §1

blackgrass = assay: Test B pre/postemergence blackgrass; assay type: in vivo, Alopecurus myosuroides
In short: as §1

[1] = Postemergence, Rate 62 g/ha, scale of 0 to 10, 0 is no effect, 10 is complete control
[2] = Postemergence, Rate 125 g/ha, scale 0 to 10, 0 is no effect, 10 is complete control
[3] = Postemergence, Rate 500 g/ha, scale 0 to 10, 0 is no effect, 10 is complete control
[4] = Preemergence, Rate 62 g/ha, scale 0 to 10 (0 no effect, 10 complete control)
[5] = Preemergence, Rate 125 g/ha, scale 0 to 10, 0 is no effect, 10 is complete control
[6] = Preemergence, Rate 500 g/ha, scale of 0 to 10 where 0 is no effect and 10 is complete control
[7] = Rate 250 g/ha, Postemergence, scale of 0 to 10 where 0 is no effect and 10 is complete control

SMILES: COCCOCn1c(=O)on(C(=O)N(c2ccc(Cl)cc2)C(C)C)c1=O [Compound 535]
- Rape plant response rating (rape; [1]): 0
- Rape plant response rating (rape; [2]): 0
- Plant response rating, Rape (rape; [3]): 0
- Rape plant response rating (rape; [4]): 2
- Rape plant response rating (rape; [5]): 2
- Rape plant response rating (0 to 10 scale) (rape; Preemergence, Rate 250 g/ha): 2
- Rape plant response rating (rape; [6]): 3
- Plant response rating, Rape (rape; [7]): 0
- Soybean plant response rating (soybean; [1]): 3
- Soybean plant response rating (soybean; [2]): 6
- Plant response rating, Soybean (soybean; [3]): 8
- Soybean plant response rating (soybean; [4]): 0
- Soybean plant response rating (soybean; [5]): 0
- Soybean plant response rating (0 to 10 scale) (soybean; Preemergence, Rate 250 g/ha): 0
- Soybean plant response rating (soybean; [6]): 0
- Plant response rating, Soybean (soybean; [7]): 6
- Velvetleaf plant response rating (velvetleaf; [1]): 0
- Velvetleaf plant response rating (velvetleaf; [2]): 0
- Plant response rating, Velvetleaf (velvetleaf; [3]): 2
- Velvetleaf plant response rating (velvetleaf; [4]): 0
- Velvetleaf plant response rating (velvetleaf; [5]): 0
- Velvetleaf plant response rating (0 to 10 scale) (velvetleaf; Preemergence, Rate 250 g/ha): 2
- Plant response rating, Velvetleaf (velvetleaf; [7]): 0
- Redroot pigweed plant response rating (pigweed; [1]): 0
- Redroot pigweed plant response rating (pigweed; [2]): 0
- Plant response rating, Redroot pigweed (pigweed; [3]): 0
- Redroot pigweed plant response rating (pigweed; [4]): 2
- Redroot pigweed plant response rating (pigweed; [5]): 2
- Redroot pigweed plant response rating (0 to 10 scale) (pigweed; Preemergence, Rate 250 g/ha): 4
- Redroot pigweed plant response rating (pigweed; [6]): 4
- Plant response rating, Redroot pigweed (pigweed; [7]): 0
- Morningglory plant response rating (morningglory; [1]): 4
- Morningglory plant response rating (morningglory; [2]): 2
- Plant response rating, Morningglory (morningglory; [3]): 3
- Morningglory plant response rating (morningglory; [4]): 0
- Morningglory plant response rating (morningglory; [5]): 0
- Morningglory plant response rating (0 to 10 scale) (morningglory; Preemergence, Rate 250 g/ha): 0
- Morningglory plant response rating (morningglory; [6]): 2
- Plant response rating, Morningglory (morningglory; [7]): 2
- Bedstraw plant response rating (bedstraw; Rate 62 g/ha, scale 0 to 10 (0 no effect, 10 complete control)): 0
- Bedstraw plant response rating (bedstraw; Rate 125 g/ha, scale 0 to 10, 0 is no effect, 10 is complete control): 0
- Bedstraw plant response rating (bedstraw; Rate 500 g/ha, scale of 0 to 10 where 0 is no effect and 10 is complete control): 0
- Sugarbeets plant response rating (sugar beet; [1]): 0
- Sugarbeets plant response rating (sugar beet; [2]): 0
- Plant response rating, Sugarbeets (sugar beet; [3]): 0
- Sugarbeets plant response rating (sugar beet; [4]): 4
- Sugarbeets plant response rating (sugar beet; [5]): 4
- Sugarbeets plant response rating (0 to 10 scale) (sugar beet; Preemergence, Rate 250 g/ha): 5
- Plant response rating, Sugarbeets (sugar beet; [7]): 0
- Corn plant response rating (corn; [1]): 0
- Corn plant response rating (corn; [2]): 0
- Plant response rating, Corn (corn; [3]): 0
- Corn plant response rating (corn; [4]): 0
- Corn plant response rating (corn; [5]): 0
- Corn plant response rating (0 to 10 scale) (corn; Preemergence, Rate 250 g/ha): 0
- Corn plant response rating (corn; [6]): 2
- Plant response rating, Corn (corn; [7]): 0
- Crabgrass plant response rating (crabgrass; [1]): 5
- Plant response rating, Crabgrass (crabgrass; [3]): 6
- Crabgrass plant response rating (crabgrass; [4]): 10
- Crabgrass plant response rating (crabgrass; [5]): 10
- Crabgrass plant response rating (0 to 10 scale) (crabgrass; Preemergence, Rate 250 g/ha): 10
- Crabgrass plant response rating (crabgrass; [6]): 10
- Plant response rating, Crabgrass (crabgrass; [7]): 5
- Nutsedge plant response rating (purple nutsedge; [1]): 0
- Nutsedge plant response rating (purple nutsedge; [2]): 0
- Plant response rating, Nutsedge (purple nutsedge; [3]): 0
- Nutsedge plant response rating (purple nutsedge; [4]): 0
- Nutsedge plant response rating (purple nutsedge; [5]): 0
- Nutsedge plant response rating (0 to 10 scale) (purple nutsedge; Preemergence, Rate 250 g/ha): 0
- Nutsedge plant response rating (purple nutsedge; [6]): 0
- Plant response rating, Nutsedge (purple nutsedge; [7]): 0
- Wheat plant response rating (wheat; [1]): 0
- Wheat plant response rating (wheat; [2]): 0
- Plant response rating, Wheat (wheat; [3]): 2
- Wheat plant response rating (wheat; [4]): 0
- Wheat plant response rating (wheat; [5]): 0
- Wheat plant response rating (0 to 10 scale) (wheat; Preemergence, Rate 250 g/ha): 0
- Wheat plant response rating (wheat; [6]): 0
- Plant response rating, Wheat (wheat; [7]): 0
- Giant foxtail plant response rating (giant foxtail; [1]): 5
- Plant response rating, Giant foxtail (giant foxtail; [3]): 5
- Giant foxtail plant response rating (giant foxtail; [4]): 10
- Giant foxtail plant response rating (giant foxtail; [5]): 10
- Giant foxtail plant response rating (0 to 10 scale) (giant foxtail; Preemergence, Rate 250 g/ha): 10
- Giant foxtail plant response rating (giant foxtail; [6]): 10
- Plant response rating, Giant foxtail (giant foxtail; [7]): 5
- Wild oats plant response rating (wild oat; [1]): 0
- Wild oats plant response rating (wild oat; [2]): 0
- Plant response rating, Wild oats (wild oat; [3]): 2
- Wild oats plant response rating (wild oat; [4]): 0
- Wild oats plant response rating (wild oat; [5]): 0
- Wild oats plant response rating (0 to 10 scale) (wild oat; Preemergence, Rate 250 g/ha): 0
- Wild oats plant response rating (wild oat; [6]): 0
- Plant response rating, Wild oats (wild oat; [7]): 0
- B. signalgrass plant response rating (surinam grass; [1]): 0
- B. signalgrass plant response rating (surinam grass; [2]): 0
- Plant response rating, B. signalgrass (surinam grass; [3]): 3
- B. signalgrass plant response rating (surinam grass; [5]): 0
- B. signalgrass plant response rating (0 to 10 scale, 0 is no effect, 10 is complete control) (surinam grass; Preemergence, Rate 250 g/ha): 0
- B. signalgrass plant response rating (surinam grass; [6]): 0
- Plant response rating, B. signalgrass (surinam grass; [7]): 0
- Cocklebur plant response rating (cocklebur; [1]): 0
- Cocklebur plant response rating (cocklebur; [2]): 0
- Plant response rating, Cocklebur (cocklebur; [3]): 0
- Cocklebur plant response rating (cocklebur; [4]): 0
- Cocklebur plant response rating (cocklebur; [5]): 0
- Cocklebur plant response rating (0 to 10 scale) (cocklebur; Preemergence, Rate 250 g/ha): 0
- Cocklebur plant response rating (cocklebur; [6]): 0
- Plant response rating, Cocklebur (cocklebur; [7]): 0
- Blackgrass plant response rating (blackgrass; [1]): 0
- Blackgrass plant response rating (blackgrass; [2]): 4
- Plant response rating, Blackgrass (blackgrass; [3]): 8
- Blackgrass plant response rating (blackgrass; [5]): 0
- Blackgrass plant response rating (0 to 10 scale) (blackgrass; Preemergence, Rate 250 g/ha): 0
- Blackgrass plant response rating (blackgrass; [6]): 0
- Plant response rating, Blackgrass (blackgrass; [7]): 7
